Active and inactive are the calls of the source.
Key:
Major prion protein = Major prion protein (Homo sapiens, UniProt P04156); format: functional, cell-based
cells [1] = assay: cells
cells [2] = format: functional, cell-based
[3] = Trypanosoma cruzi growth suppression in host cells – NIH3T3 host cells, beta-gal luminescence, confirmation (AID 2044); format: functional, cell-based;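 further: intracellular parasites grown in NIH/3T3 mouse fibroblasts as host cells; luminescent beta-galactosidase reporter signal from transgenic T. cruzi replicating inside host cells; inhibitors lower the luminescence signal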
cells [4] = format: functional, cell-based; remark: listed apart in the source
[5] = NIH3T3 cell viability loss – ATP luminescence, mouse fibroblasts, counter-screen, dose response (AID 2010); format: functional, cell-based;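 further: cells exposed to compound for about 90 hours before reading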
[6] = target: T1, Microphthalmia-associated transcription factor (Homo sapiens, UniProt O75030); assay: reducers of TRPM1 reporter luminescence, concentration series – cell-based, SK-MEL-5, cherry-picked, set 3, MITF inhibitor project, dose response (AID 493073); format: functional;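 further: SK-MEL-5 melanoma cells with luciferase driven by the MITF target TRPM1 promoter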
T1 sequence (O75030 whole entry): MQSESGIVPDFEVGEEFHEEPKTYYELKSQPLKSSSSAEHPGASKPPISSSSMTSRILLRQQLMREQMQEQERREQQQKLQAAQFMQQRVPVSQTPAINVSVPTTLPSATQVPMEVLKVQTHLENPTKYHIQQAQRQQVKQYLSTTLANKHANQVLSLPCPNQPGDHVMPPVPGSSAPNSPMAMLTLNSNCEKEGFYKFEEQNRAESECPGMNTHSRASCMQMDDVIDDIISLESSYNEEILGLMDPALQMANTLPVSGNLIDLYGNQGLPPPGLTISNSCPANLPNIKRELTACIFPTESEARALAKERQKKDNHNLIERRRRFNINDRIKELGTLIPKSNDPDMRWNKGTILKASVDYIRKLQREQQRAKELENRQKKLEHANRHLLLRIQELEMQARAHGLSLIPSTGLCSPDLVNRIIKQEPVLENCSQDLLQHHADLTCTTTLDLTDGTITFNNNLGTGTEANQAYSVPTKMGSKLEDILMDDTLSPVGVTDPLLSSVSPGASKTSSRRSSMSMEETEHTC

A-375 = assay: MITF: Counter assay: A375 proliferation Measured in Cell-Based System Using Plate Reader - 2084-03_Inhibitor_Dose_DryPowder_Activity. [Related pubchem assays (depositor defined):AID488944]; format: functional; conditions: Homo sapiens
[7] = target: T2, DNA repair protein RAD52 homolog (Homo sapiens, UniProt P43351); format: functional, biochemical
T2 sequence (P43351 whole entry): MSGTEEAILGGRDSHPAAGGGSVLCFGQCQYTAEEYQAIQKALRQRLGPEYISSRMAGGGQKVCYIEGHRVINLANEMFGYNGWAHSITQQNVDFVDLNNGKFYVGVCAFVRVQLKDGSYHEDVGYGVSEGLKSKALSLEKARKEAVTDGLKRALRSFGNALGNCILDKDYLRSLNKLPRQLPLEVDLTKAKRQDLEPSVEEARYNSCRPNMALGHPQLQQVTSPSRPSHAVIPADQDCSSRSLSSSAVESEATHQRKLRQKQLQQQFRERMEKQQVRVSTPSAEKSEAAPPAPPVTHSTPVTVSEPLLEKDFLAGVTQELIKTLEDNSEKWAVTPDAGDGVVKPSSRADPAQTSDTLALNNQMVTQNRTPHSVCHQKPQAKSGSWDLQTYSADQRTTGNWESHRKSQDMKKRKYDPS

[8] = viability loss in HepG2 liver cells – cell-based, ATP luminescence, cherry-pick, set 6, cytotoxicity control, dose response (AID 1053125); format: functional
Transthyretin = Transthyretin (Homo sapiens, UniProt P02766); assay: Luminescence-based cell-based high throughput dose response assay to identify activators of Transthyretin (TTR) transcription.; format: functional
cells [9] = conditions: A549
cells [10] = assay: cells; remark: listed apart in the source
cells [11] = conditions: HEK293
[12] = target: T3, Corticotropin-releasing factor receptor 2/Corticotropin-releasing factor-binding protein (Homo sapiens, UniProt P24387+Q13324); assay: Dose Response confirmation of uHTS hits for small molecule antagonists of the CRF-binding protein and CRF-R2 receptor complex.; format: functional; conditions: read-out: IC50_Mean
T3 sequence (Q13324 whole entry): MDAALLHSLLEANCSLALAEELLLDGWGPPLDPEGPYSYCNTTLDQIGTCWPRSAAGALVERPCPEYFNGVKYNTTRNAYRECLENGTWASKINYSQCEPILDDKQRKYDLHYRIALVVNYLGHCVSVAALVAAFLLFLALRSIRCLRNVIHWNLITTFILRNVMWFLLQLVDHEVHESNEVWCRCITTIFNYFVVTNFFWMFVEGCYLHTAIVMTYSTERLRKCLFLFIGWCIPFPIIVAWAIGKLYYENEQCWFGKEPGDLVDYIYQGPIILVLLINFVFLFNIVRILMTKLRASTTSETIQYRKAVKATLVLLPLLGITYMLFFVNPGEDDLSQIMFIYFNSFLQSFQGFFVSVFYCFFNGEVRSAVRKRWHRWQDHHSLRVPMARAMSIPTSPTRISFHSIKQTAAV
T3 sequence (P24387 whole entry): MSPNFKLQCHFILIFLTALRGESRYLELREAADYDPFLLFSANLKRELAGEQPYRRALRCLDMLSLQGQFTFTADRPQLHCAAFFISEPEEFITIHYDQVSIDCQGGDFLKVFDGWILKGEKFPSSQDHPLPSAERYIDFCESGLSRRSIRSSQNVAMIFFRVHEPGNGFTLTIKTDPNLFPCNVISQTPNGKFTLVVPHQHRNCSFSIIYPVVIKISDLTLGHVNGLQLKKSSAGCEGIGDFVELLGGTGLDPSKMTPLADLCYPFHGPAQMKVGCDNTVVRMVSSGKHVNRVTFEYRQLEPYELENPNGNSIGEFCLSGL

[13] = target: T3, Corticotropin-releasing factor receptor 2/Corticotropin-releasing factor-binding protein; assay: activators of CRF receptor 2 with binding protein – uHTS hits, confirmation (AID 602473); format: functional; conditions: read-out: EC50_Mean
Kallikrein-7 = Kallikrein-7 (Homo sapiens, UniProt P49862); assay: Fluorescence Intensity-based biochemical primary high throughput dose response assay to identify activators of kallikrein-7 (K7) zymogen.
[14] = target: Tyrosyl-DNA phosphodiesterase 2 (Homo sapiens, UniProt O95551); assay: potency against TDP2 phosphodiesterase activity – biochemical, epi absorbance, IC50, dose response (AID 743297)
[15] = NIH-3T3 fibroblast cytotoxicity, dose response, cytotoxicity control, cell-based, fluorescence, Alamar Blue, secondary assay (AID 2327); format: functional;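 further: NIH-3T3 mouse fibroblasts cultured with fluconazole at 8 µg/mL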
[16] = fluconazole-exposed Candida albicans growth modulators – fluorescence, retest, confirmation (AID 2467); format: functional, cell-based
INS1 = assay: INS-1E survival protection against cytokine death – cell-based, luminescence, retest, dose response (AID 449756); format: functional; conditions: Rattus norvegicus;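 further: cell death triggered by IL-1 beta plus TNF-alpha plus IFN-gamma mixture; protective hits raise ATP signal compared with cytokine alone wells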
[17] = off-target signal loss in HeLa-CEM21 co-culture – HeLa F-luc CTL cells, cherry-picked, counter-screen for HIV-1 Env fusion inhibitor project, dose response (AID 652040); format: functional, cell-based;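 further: potency for signal decrease marking cytotoxic or nonspecific inhibition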
[18] = HIV-1 AD8 envelope cell-cell fusion blockers – cherry-pick, dose response (AID 652062); format: functional, cell-based;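 further: luciferase signal from cell-cell fusion driven by HIV-1 clade B AD8 Env; potency is for inhibitors of fusion seen as a drop in luminescence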
[19] = target: COUP transcription factor 2 (Homo sapiens, UniProt P24468); assay: Luminescence-based cell-based high throughput dose response assay to identify inhibitors of COUP-TFII (NR2F2).; format: functional;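 further: HEK293 cells transiently cotransfected with COUP-TFII expression vector and reporter; luciferase reporter luminescence driven by COUP-TFII from the pX2-168 reporter plasmid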
[20] = target: 1-phosphatidylinositol 4,5-bisphosphate phosphodiesterase gamma-1 (Homo sapiens, UniProt P19174); assay: Counterscreen for inhibitors of phospholipase C isozymes (PLC-B3): Fluorescence-based biochemical high throughput dose response assay to identify inhibitors of phospholipase C isozymes (PLC-gamma1).
[21] = target: 1-phosphatidylinositol 4,5-bisphosphate phosphodiesterase beta-3 (Homo sapiens, UniProt Q01970); assay: Fluorescence-based biochemical high throughput dose response assay to identify inhibitors of phospholipase C isozymes (PLC-B3).
Caspase-6 = Caspase-6 (Homo sapiens, UniProt P55212); assay: inhibition of CASP6 peptide cleavage – biochemical, VEID-R110 fluorescence, cherry-pick, dose response (AID 720632)
Caspase-7 = Caspase-7 (Homo sapiens, UniProt P55210); assay: caspase-7 enzyme inhibition, selectivity check – biochemical, DEVD-R110 fluorescence, cherry-pick, selectivity assay for caspase-6 inhibitor project, dose response (AID 743295); format: functional

**Q.** Which results are given for `CCOC(=O)CNC(=O)CSc1nc2c(C)cccc2cc1CC`?
**A.** IC50 (Major prion protein): 2.76 µM (active); IC50 (cells [1]): > 138 µM (inactive)

**Q.** Which results are given for `OCCNc1c2ccccc2nc2ccccc12`?
**A.** EC50 (cells [2]): 23 µM (active); EC50 [3]: 0.993 µM (active); EC50 (cells [4]): > 350 µM (not active); EC50 [5]: 7.92 µM (active); AC50 [6]: 7.28 µM (active); AC50 (A-375): 28.6 µM (active); AC50 [7]: 9.09 µM (active); AC50 [8]: 17 µM (active); EC50 (Transthyretin): > 167 µM (inactive); AC50 (cells [9]): 11.6 µM (active); AC50 (cells [10]): 11.7 µM (active); AC50 (cells [11]): 14.2 µM (active)

**Q.** Which results are given for `CCCCOC(=O)Oc1ccc2c(=O)c(Oc3cccc(C)c3)coc2c1`?
**A.** IC50 [12]: > 47.1 µM (inactive); EC50 [13]: > 53 µM (inactive); EC50 (Kallikrein-7): 6.86 µM (active)

**Q.** For `CC1=NN(c2ccccc2)C(=O)/C1=C\c1ccc(Br)s1`, which IC50 [14] is on record?
**A.** > 128 µM (inactive)

**Q.** Which EC50 [15] does the source give for `Clc1ccc(OCCN2CCN(c3ncnc4sccc34)CC2)cc1` here?
**A.** > 150 µM (inactive)

**Q.** And the EC50 [16]?
**A.** 0.044 µM (active)

**Q.** What about the AC50 (INS1) of the same compound?
**A.** 0.503 µM (active)

**Q.** What about the AC50 [17] of the same compound?
**A.** > 70 µM (inactive)

**Q.** And the AC50 [18]?
**A.** < 0.26 µM (active)

**Q.** What about the IC50 [19] of the same compound?
**A.** 1.13 µM (active)

**Q.** For `O=C(CSCc1ccccc1)Nc1cccc(F)c1`, which IC50 [20] is on record?
**A.** > 122 µM (inactive)

**Q.** What about the IC50 [21] of the same compound?
**A.** > 122 µM (inactive)

**Q.** What does the source list for `Cc1n[nH]c([S+]([O-])CC(=O)O)c1[N+](=O)[O-]` (stereo not drawn)?
**A.** AC50 (Caspase-6): 4.04 µM (active); AC50 (Caspase-7): 56.5 µM (active)
